Assays:
[1] = target: PARP1 (Homo sapiens, UniProt P09874); experiment: Inhibition of PARP1 enzyme activity (ELISA, chemiluminescence); format: biochemical; conditions: for IC50: ELISA, histone-coated plate, NAD+, 60 min at 25 °C; for Selectivity PARP2/PARP1: ratio of PARP2 IC50 to PARP1 IC50
[2] = target: PARP2 (Homo sapiens, UniProt Q9UGN5); experiment: biochemical;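 further: PARP2 enzyme ELISA on histone-coated plates, Strep-HRP detection with chemiluminescence read-out, 10 min compound preincubation with enzyme, inhibition scaled between Max and Min signal controls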
PARP2, sequence (Q9UGN5 whole entry): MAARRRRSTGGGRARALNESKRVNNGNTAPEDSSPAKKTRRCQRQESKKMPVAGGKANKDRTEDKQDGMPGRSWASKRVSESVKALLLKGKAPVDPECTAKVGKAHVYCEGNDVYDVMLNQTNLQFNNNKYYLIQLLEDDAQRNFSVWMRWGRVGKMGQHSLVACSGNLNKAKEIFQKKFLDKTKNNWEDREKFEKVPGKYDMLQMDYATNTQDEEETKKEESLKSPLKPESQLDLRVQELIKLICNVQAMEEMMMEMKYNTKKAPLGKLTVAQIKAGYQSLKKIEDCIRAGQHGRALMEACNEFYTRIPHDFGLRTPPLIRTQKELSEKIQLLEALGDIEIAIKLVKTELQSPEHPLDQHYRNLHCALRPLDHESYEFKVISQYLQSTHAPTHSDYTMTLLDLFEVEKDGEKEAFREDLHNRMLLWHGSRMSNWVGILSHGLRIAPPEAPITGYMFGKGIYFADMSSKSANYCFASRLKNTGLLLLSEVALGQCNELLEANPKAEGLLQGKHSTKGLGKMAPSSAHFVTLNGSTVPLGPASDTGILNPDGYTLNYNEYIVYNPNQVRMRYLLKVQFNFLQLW
Experimental: Experimental Objective: To evaluate the inhibitory effect of the compounds of the present invention on the enzyme activities of PARP1 and PARP2 using ELISA.
• 1. histone-coated 384-well plates was prepared: 25 µL of histone solution was added to each well and incubated overnight at 4 °C. • 2. PBST buffer, blocking buffer (PBS buffer with 5% BSA and 0.05% Tween-20 added) and detection buffer (20 mM HEPES pH 7.5 + 100 mM NaCl + 2 mM DTT + 0.002% Tween-20 + 0.1% BSA) were prepared. • 3. The histone-coated 3 84-well plate was washed three times with PBST buffer, blocked at room temperature with 50 µL blocking buffer for 1 hour, and then washed three times with PBST buffer. • 4. Test compounds were prepared as 2000-fold stock solutions in DMSO. 50 nL of the stock solution was mixed with 19.95 µL detection buffer, and 5 µL of the gradient-diluted test compound was transferred to each well. • 5. Enzymatic reaction (PARP1): PARP1 & DNA mix was pre-incubated at 25 °C for 10 minutes. 10 µL of the PARP1 & DNA mix was added to each well and incubated with the test compound at room temperature for 10 minutes. […] Finally, the 384-well plate was washed three times with PBST buffer. Enzymatic reaction (PARP2): PARP2 was pre-incubated at 25 °C for 10 minutes. 10 µL of PARP2 was added to each well and incubated with the test compound at room temperature for 10 minutes. […] Finally, the 384-well plate was washed three times with PBST buffer. • 6. Detection (PARP1): 20 µL of anti-Poly/Mono-ADP Ribose Rabbit mAb was added and incubated at room temperature for 1.5 hours, followed by three washes of the 384-well plate with PBST buffer. Then, 20 µL of diluted anti-rabbit IgG, HRP-linked Antibody (diluted 1:2000 in blocking buffer) was added and incubated at room temperature for 1 hour. After washing the plate three times with PBST buffer, 25 µL of a 1:1 mixture of Femto-ECL Substrate A and Femto-ECL Substrate B was added. Detection (PARP2): 25 µL of Strep-HRP was added and incubated at room temperature for 1 hour, followed by three washes of the 384-well plate with PBS buffer. Then, 25 µL of a 1:1 mixture of Femto-ECL Substrate A and Femto-ECL Substrate B was added. • 7. Chemiluminescence intensity was measured using an Envision multimode microplate reader. • 8. Data Processing
The inhibition rate was calculated in Excel using formula (1). inh% = (Max−Signal)/(Max−Min)*100 [formula]
The IC50 value was obtained by fitting the data in XL-Fit using formula (2). Y = bottom + (top−bottom)/(1+(IC50/X)*HillSlope); [formula] wherein Y is the inhibition percentage and X is the compound concentration.

PARP1, sequence (P09874 whole entry): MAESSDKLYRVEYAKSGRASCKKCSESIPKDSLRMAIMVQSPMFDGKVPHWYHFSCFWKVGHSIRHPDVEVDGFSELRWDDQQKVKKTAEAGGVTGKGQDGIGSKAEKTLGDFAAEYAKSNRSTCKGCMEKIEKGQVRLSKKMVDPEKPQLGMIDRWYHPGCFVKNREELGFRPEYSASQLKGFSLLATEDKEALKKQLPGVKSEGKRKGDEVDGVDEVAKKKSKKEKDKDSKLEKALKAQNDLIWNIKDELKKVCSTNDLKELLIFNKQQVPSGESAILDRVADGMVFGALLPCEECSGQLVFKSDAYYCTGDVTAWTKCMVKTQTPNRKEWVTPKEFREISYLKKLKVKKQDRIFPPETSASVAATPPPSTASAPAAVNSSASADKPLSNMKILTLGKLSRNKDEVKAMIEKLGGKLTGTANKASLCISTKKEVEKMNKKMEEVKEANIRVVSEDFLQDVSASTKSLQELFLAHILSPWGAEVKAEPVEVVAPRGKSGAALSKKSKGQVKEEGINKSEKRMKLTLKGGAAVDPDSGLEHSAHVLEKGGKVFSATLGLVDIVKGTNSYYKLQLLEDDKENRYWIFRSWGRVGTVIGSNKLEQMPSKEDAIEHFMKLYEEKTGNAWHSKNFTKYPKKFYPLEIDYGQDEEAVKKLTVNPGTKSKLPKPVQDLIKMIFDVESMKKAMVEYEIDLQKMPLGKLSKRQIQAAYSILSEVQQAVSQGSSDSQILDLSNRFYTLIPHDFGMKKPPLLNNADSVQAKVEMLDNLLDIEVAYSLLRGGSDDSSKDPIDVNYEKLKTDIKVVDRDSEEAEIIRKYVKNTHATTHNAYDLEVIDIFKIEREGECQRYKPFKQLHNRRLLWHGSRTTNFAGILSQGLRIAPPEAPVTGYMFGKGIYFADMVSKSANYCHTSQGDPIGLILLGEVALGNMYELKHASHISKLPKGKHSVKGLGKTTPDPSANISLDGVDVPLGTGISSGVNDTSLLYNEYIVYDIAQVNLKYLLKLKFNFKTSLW

| Structure (SMILES) | IC50 [1] [nM] | Selectivity PARP2/PARP1 [1] | IC50 [2] [nM] |
| --- | --- | --- | --- |
| CC#Cc1cc(CN2CC=C(c3ccc(C(=O)NC)nc3)CC2)cc2[nH]c(=O)c(C)nc12 [Example 51, N-methyl-1'-((2-methyl-3-oxo-8-(prop-1-yn-1-yl)-3,4-dihydroquinoxalin-6-yl)methyl)-1',2',3',6'-tetrahydro-[3,4'-bipyridine]-6-carboxamide] | 7.2 | 198.0 | 1420 |
| CC#Cc1cc(CN2CCN(c3ccc(C#N)nc3)CC2)cc2[nH]c(=O)c(C)nc12 [Example 36, 5-(4-((2-methyl-3-oxo-8-(prop-1-yn-1-yl)-3,4-dihydroquinoxalin-6-yl)methyl)piperazin-1-yl)picolinonitrile] | 3 | 139.8 | 413 |
| CC#Cc1cc(CN2CC=C(c3ccc(C(=O)NC)nc3)CC2)c(F)c2[nH]c(=O)c(C)nc12 [Example 50, 1'-((5-fluoro-2-methyl-3-oxo-8-(prop-1-yn-1-yl)-3,4-dihydroquinoxalin-6-yl)methyl)-N-methyl-1',2',3',6'-tetrahydro-[3,4'-bipyridine]-6-carboxamide] | 3.3 | >3042 | > 10000 |
| CC#Cc1cc(CN2CC=C(c3ccc(C(=O)NC)nc3F)CC2)c(F)c2[nH]c(=O)c(C)nc12 [Example 23, 2-fluoro-1'-((5-fluoro-2-methyl-3-oxo-8-(prop-1-yn-1-yl)-3,4-dihydroquinoxalin-6-yl)methyl)-N-methyl-1',2',3',6'-tetrahydro-[3,4'-bipyridine]-6-carboxamide] | 2.4 | 4113.1 | > 10000 |
| CC#Cc1cc(CN2CC=C(c3ccc(C(=O)NC4CC4)nc3)CC2)c(F)c2[nH]c(=O)c(C)nc12 [Example 67, N-cyclopropyl-1'-((5-fluoro-2-methyl-3-oxo-8-(prop-1-yn-1-yl)-3,4-dihydroquinoxalin-6-yl)methyl)-1',2',3',6'-tetrahydro-[3,4'-bipyridine]-6-carboxamide] | 6.9 | >1444 | > 10000 |
| CNC(=O)c1ccc(N2CCN(Cc3cc(-c4cccc(OC)c4)c4nc(C)c(=O)[nH]c4c3)CC2)c(F)n1 [Example 73] | 5.7 | 472.0 | 2680 |
| CNC(=O)c1ccc(N2CCN(Cc3cc(OC(C)C(F)(F)F)c4nc(C)c(=O)[nH]c4c3)CC2)c(F)n1 (stereo not drawn) [Example 34, 6-fluoro-N-methyl-5-(4-((2-methyl-3-oxo-8-((1,1,1-trifluoropropan-2-yl)oxy)-3,4-dihydroquinoxalin-6-yl)methyl)piperazin-1-yl)picolinamide] | 2.8 | 359.1 | 1020 |
| CNC(=O)c1ccc(N2CCN(Cc3cc(Oc4ccccc4F)c4nc(C)c(=O)[nH]c4c3)CC2)c(F)n1 [Example 27, 6-fluoro-5-(4-((8-(2-fluorophenoxy)-2-methyl-3-oxo-3,4-dihydroquinoxalin-6-yl)methyl)piperazin-1-yl)-N-methylpicolinamide] | 2.2 | 278.9 | 626 |
| CNC(=O)c1ccc(N2CCN(Cc3cc(Oc4ccncc4)c4nc(C)c(=O)[nH]c4c3)CC2)c(F)n1 [Example 29, 6-fluoro-N-methyl-5-(4-((2-methyl-3-oxo-8-(pyridin-4-yloxy)-3,4-dihydroquinoxalin-6-yl)methyl)piperazin-1-yl)picolinamide] | 11.5 | 217.3 | 2500 |
| CNC(=O)c1ccc(C2=CCN(Cc3cc(C#CC4CC4)c4nc(C)c(=O)[nH]c4c3F)CC2)c(F)n1 [Example 24, 1'-((8-(cyclopropylethynyl)-5-fluoro-2-methyl-3-oxo-3,4-dihydroquinoxalin-6-yl)methyl)-2-fluoro-N-methyl-1',2',3',6'-tetrahydro-[3,4'-bipyridine]-6-carboxamide] | 10 | 1004.6 | > 10000 |
| CC#Cc1cc(CN2CCN(c3ccc(OC(F)F)nc3)CC2)cc2[nH]c(=O)c(C)nc12 [Example 37, 7-((4-(6-(difluoromethoxy)pyridin-3-yl)piperazin-1-yl)methyl)-3-methyl-5-(prop-1-yn-1-yl)quinoxalin-2(1H)-one] | 12.9 | 148.2 | 1910 |
| CNC(=O)c1ccc(N2CCN(Cc3cc(OC(F)(F)F)c4nc(C)c(=O)[nH]c4c3)CC2)c(F)n1 [Example 17, 6-fluoro-N-methyl-5-(4-((2-methyl-3-oxo-8-(trifluoromethoxy)-3,4-dihydroquinoxalin-6-yl)methyl)piperazin-1-yl)picolinamide] | 3.6 | 46.9 | 169 |
| CNC(=O)c1ccc(C2=CCN(Cc3cc(OC(F)F)c4nc(C)c(=O)[nH]c4c3F)CC2)c(C)n1 [Example 62, 1'-((8-(difluoromethoxy)-5-fluoro-2-methyl-3-oxo-3,4-dihydroquinoxalin-6-yl)methyl)-N,2-dimethyl-1',2',3',6'-tetrahydro-[3,4'-bipyridine]-6-carboxamide] | 6.4 | >1554 | > 10000 |
| CNC(=O)c1ccc(N2CCN(Cc3cc(C4CCCC4)c4nc(C)c(=O)[nH]c4c3)CC2)c(F)n1 [Example 31, 5-(4-((8-cyclopentyl-2-methyl-3-oxo-3,4-dihydroquinoxalin-6-yl)methyl)piperazin-1-yl)-6-fluoro-N-methylpicolinamide] | 2.5 | 18.4 | 45.4 |
| CC#Cc1cc(CN2CCN(c3ccc(C(=O)NC)nc3)CC2)c(F)c2[nH]c(=O)c(C)nc12 [Example 40, 5-(4-((5-fluoro-2-methyl-3-oxo-8-(prop-1-yn-1-yl)-3,4-dihydroquinoxalin-6-yl)methyl)piperazin-1-yl)-N-methylpicolinamide] | 5.7 | >1756.9 | > 10000 |
| CNC(=O)c1ccc(N2CCN(Cc3cc(Oc4cccc(F)c4)c4nc(C)c(=O)[nH]c4c3)CC2)c(F)n1 [Example 28, 6-fluoro-5-(4-((8-(3-fluorophenoxy)-2-methyl-3-oxo-3,4-dihydroquinoxalin-6-yl)methyl)piperazin-1-yl)-N-methylpicolinamide] | 1.8 | 356.3 | 654 |

From patent EP4755880A1, “SUBSTITUTED NITROGEN-CONTAINING BICYCLIC COMPOUND AND USE THEREOF” (Sunshine Lake Pharma Co., Ltd., priority 2023, dated 2025)
